From PMC10415461 (Molecular Diversity, 2022)
Values after ≈ are worked out from the molar mass of the structure shown.

What was measured:
Gram-positive pathogens = system: Gram-positive pathogens; set-up: method as in doi:10.1016/j.cclet.2016.12.012, doi:10.1515/hc-2016-0125; conditions: cited from earlier work
Gram-negative pathogens = system: Gram-negative pathogens; set-up: method as in doi:10.1016/j.cclet.2016.12.012, doi:10.1515/hc-2016-0125; conditions: cited from earlier work
[1] = system: C. albicans (ATCC 10,231); experiment: Antifungal MIC, agar cup diffusion method; assay type: cell-based, Candida albicans; conditions: Candida albicans, ATCC 10,231, 24 h, Sabouraud agar, 37 °C, read-out: MIC C. albicans (Fungi)
Procedure: The antibacterial and antifungal activities of compounds, ketone 1, 2a-j, and 5a-i were evaluated in vitro against S. aureus (ATCC 6538), P. aeruginosa (ATCC 10,145), E. coli (ATCC 8739), and C. albicans (ATCC 10,231). […] The antifungal activity of compounds 1, 2a-j, and 5a-i and ketoconazole were determined according to the agar cup diffusion method at Deraya University, Faculty of Pharmacy, Department of Microbiology.
Fungal strains and culture conditions. […] Standard strain of Candida albicans (ATCC 10,231) was obtained from microbiological resource center, Faculty of Agriculture, Ain Shams University, Cairo, Egypt. The isolate was maintained at -70 °C in Trypticase Soya Broth (TSB, Becton, and Dickinson) with 10% glycerol. Prior to inoculation, the isolate was subcultured at 37 °C for 24 h on Trypticase Soya Agar (TSA, Becton, and Dickinson) and TSB, respectively.
(§1) The plates were rotated slowly to ensure uniform distribution of the microorganisms and then allowed to solidify on a flat surface. After solidification, four equidistant and circular wells of 10 mm diameter were carefully punched using a sterile cork bore. Twofold serial dilutions of the tested compounds using DMSO were performed. An equal volume of 100µL of each dilution was applied separately to each well in three replicates using a micropipette. All plates were incubated at 37 °C for 24 h. The inhibition zones were measured, and their average was calculated.

[2] = system: tested bacterial strains (Gram positive or Gram negative: S. aureus, P. aeruginosa, E. coli); experiment: Antibacterial MIC range over the tested bacterial strains; assay type: cell-based; conditions: range over Gram positive and Gram negative strains
Procedure: (§2) . Standard strains of Staphylococcus aureus (ATCC 6538), Pseudomonas aeruginosa (ATCC 10,145), and Escherichia coli (ATCC 8739) were obtained from microbiological resource center, Faculty of Agriculture, Ain Shams University, Cairo, Egypt. All isolates were maintained at -70 °C in Trypticase Soya Broth (TSB, Becton, and Dickinson) with 10% glycerol. Prior to inoculation, all isolates were subcultured at 37 °C for 24 h on Trypticase Soya Agar (TSA, Becton, and Dickinson) and TSB, respectively.
as §1, with “calculated. The MIC was calculated by plotting the natural logarithm of the concentration of each dilution of the tested compounds against the square of zones of inhibition, and a regression line was drawn through the points then the antilogarithm of the intercept on the logarithm of concentration axis gave the MIC value.” for “calculated.”

S. aureus DNA gyrase = S. aureus DNA gyrase (Staphylococcus aureus, UniProt P0A0K8+P20831); experiment: Staphylococcus aureus DNA gyrase supercoiling assay; assay type: biochemical; conditions: supercoiling of relaxed pBR322, 37 °C, 30 min; read-out: S. aureus DNA gyrase IC50 ± SD
Procedure: As antibacterial agents, fluoroquinolones act by targeting and inhibiting DNA gyrase (topo II) which is an essential enzyme involved in the DNA replication process.
Staphylococcus aureus DNA gyrase was incubated at 37 °C for 30 min in a total reaction volume of 30 μl containing 40 mM HEPES. KOH (pH 7.6), 10 mM magnesium acetate, 10 mM DTT, 2 mM ATP, 500 mM potassium glutamate, 0.05 mg/ml albumin and Relaxed pBR322. DNA gyrase supercoiling reactions catalyzed by S. aureus gyrase, Stop reaction by adding 30 μL of STEB and 30 μL of chloroform/isoamyl alcohol (v:v, 24:1),and then Vortex briefly ~ 5 secs and centrifuge for 1 min. after which 20 µL of this was loaded on a 1% agarose gel that was then run at ~ 75 V for approximately 2 h. The gel was stained by (0.5 mg/L) ethidium bromide in water. Fluorescent images were taken at a wavelength of 300 nm on a UV transilluminator imaging system. The fluorescence intensity of the supercoiled plasmid reaction product was quantitated using ImagQuant software (Molecular Dynamics).

E. coli (ATCC 8739) = experiment: Antibacterial MIC, standard agar cup diffusion method; assay type: cell-based; conditions: Escherichia coli, ATCC8739, 37 °C, 24 h, read-out: MIC E. coli (Gram-negative)
Procedure: as §2, with “The antibacterial and antifungal activities of compounds, ketone 1, 2a-j, and 5a-i were evaluated in vitro against S. aureus (ATCC 6538), P. aeruginosa (ATCC 10,145), E. coli (ATCC 8739), and C. albicans (ATCC 10,231). […] Standard” for “. Standard”
as §1

[3] = system: P. aeruginosa (ATCC 10,145); experiment: as above; assay type: cell-based; conditions: Pseudomonas aeruginosa, ATCC 10145, 37 °C, 24 h, read-out: MIC P. aeruginosa (Gram-negative)
Procedure: as §2, with “The antibacterial and antifungal activities of compounds, ketone 1, 2a-j, and 5a-i were evaluated in vitro against S. aureus (ATCC 6538), P. aeruginosa (ATCC 10,145), E. coli (ATCC 8739), and C. albicans (ATCC 10,231). […] Standard” for “. Standard”
as §1

S. aureus (ATCC 6538) = experiment: as above; assay type: cell-based, Staphylococcus aureus; conditions: Staphylococcus aureus, ATCC6538, 37 °C, 24 h, read-out: MIC S. aureus (Gram-positive)
Procedure: as §2, with “The antibacterial and antifungal activities of compounds, ketone 1, 2a-j, and 5a-i were evaluated in vitro against S. aureus (ATCC 6538), P. aeruginosa (ATCC 10,145), E. coli (ATCC 8739), and C. albicans (ATCC 10,231). […] Standard” for “. Standard”
as §1

[4] = system: fluoroquinolones, vancomycin, and/or linezolid-resistant strains; conditions: cited from earlier work
[5] = system: Gram negative and Gram positive; set-up: method as in PMID 14623004; conditions: cited from earlier work
[6] = system: all tested strains, either Gram-positive or Gram-negative pathogens; set-up: method as in doi:10.1016/j.cclet.2016.12.012, doi:10.1515/hc-2016-0125; conditions: reference drug; cited from earlier work

S. aureus DNA gyrase, sequence (P20831 whole entry): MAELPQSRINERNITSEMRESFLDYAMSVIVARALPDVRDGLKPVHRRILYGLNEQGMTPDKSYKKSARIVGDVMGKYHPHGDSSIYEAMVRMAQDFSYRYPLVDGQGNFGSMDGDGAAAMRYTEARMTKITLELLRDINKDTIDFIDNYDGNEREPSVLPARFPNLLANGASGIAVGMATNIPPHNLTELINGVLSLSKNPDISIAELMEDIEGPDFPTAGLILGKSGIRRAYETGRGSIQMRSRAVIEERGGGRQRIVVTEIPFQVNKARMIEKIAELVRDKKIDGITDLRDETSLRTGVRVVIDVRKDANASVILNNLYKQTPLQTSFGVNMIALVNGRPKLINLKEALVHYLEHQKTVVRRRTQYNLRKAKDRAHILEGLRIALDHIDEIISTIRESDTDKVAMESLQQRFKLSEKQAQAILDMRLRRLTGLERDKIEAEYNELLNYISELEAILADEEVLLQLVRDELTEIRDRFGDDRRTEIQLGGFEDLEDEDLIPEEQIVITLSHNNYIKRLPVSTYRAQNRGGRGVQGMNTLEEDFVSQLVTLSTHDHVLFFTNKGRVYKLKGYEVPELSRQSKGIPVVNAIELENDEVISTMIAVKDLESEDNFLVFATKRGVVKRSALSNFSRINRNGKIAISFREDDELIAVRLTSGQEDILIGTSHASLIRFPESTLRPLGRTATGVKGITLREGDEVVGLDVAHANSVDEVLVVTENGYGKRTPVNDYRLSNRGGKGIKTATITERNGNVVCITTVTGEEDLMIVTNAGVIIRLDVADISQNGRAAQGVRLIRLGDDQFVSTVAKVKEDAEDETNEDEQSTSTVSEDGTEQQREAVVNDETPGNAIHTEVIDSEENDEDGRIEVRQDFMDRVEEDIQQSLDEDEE
S. aureus DNA gyrase, sequence (P0A0K8 whole entry): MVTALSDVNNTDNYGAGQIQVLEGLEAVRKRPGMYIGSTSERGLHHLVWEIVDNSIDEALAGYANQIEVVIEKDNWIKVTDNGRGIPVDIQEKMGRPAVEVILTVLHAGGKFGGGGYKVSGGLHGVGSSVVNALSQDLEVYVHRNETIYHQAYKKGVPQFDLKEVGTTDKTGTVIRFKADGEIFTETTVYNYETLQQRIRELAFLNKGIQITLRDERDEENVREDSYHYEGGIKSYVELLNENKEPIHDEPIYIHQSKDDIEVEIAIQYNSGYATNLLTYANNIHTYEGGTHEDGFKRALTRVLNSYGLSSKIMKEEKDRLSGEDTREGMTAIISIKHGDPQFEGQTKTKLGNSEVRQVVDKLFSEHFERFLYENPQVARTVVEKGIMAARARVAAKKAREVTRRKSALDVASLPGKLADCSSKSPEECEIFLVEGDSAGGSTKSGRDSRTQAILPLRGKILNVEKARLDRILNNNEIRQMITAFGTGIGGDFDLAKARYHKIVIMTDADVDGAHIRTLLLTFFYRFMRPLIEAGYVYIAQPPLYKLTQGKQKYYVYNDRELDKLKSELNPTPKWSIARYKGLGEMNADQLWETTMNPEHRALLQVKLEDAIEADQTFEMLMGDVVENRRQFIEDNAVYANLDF

In the case of `COc1cccc(-c2nn(CN3CCN(c4cc5c(cc4F)c(=O)c(C(=O)O)cn5C4CC4)CC3)c(=S)n2Cc2ccc(Br)cc2Cl)c1` [hybrid I], the MIC (Gram-positive pathogens) is listed as under 0.24 mg/L and the MIC (Gram-negative pathogens) is listed as 0.01 to 1.32 mg/L.

With `N#Cc1c(-c2ccccc2)nc(SCC(=O)N2CCN(c3cc4c(cc3F)c(=O)c(C(=O)O)cn4C3CC3)CC2)[nH]c1=O` [Compound 5a, 7-(4-(2-((5-Cyano-6-oxo-4-phenyl-1,6-dihydropyrimidin-2-yl)thio)acetyl)piperazin-1-yl)-1-cyclopropyl-6-fluoro-4-oxo-1,4-dihydroquinoline-3-carboxylic acid] the MIC [1] was 6.23 mg/L (≈ 10.4 µM), the “MIC range against the tested bacterial strains” value [2] was 0.06 to 1.53 mg/L and the melting point was 237 to 240 °C. The IC50 (S. aureus DNA gyrase) was 4.55 ± 0.24 µM, the MIC (E. coli (ATCC 8739)) was 0.91 mg/L (≈ 1.52 µM) and the MIC [3] was 1.53 mg/L (≈ 2.55 µM). For the same compound, the MIC (S. aureus (ATCC 6538)) was 0.36 mg/L (≈ 0.599 µM).

In the case of `CC(=O)NC[C@H]1CN(c2ccc(N3CCN(c4cc5c(cc4F)c(=O)c(C(=O)O)cn5C4CC4)CC3)c(F)c2)C(=O)O1` [hybrid II], the MIC range [4] is listed as 0.25 to 0.5 mg/L and the MIC range [5] is listed as 0.125 to 4 mg/L.

In the case of `CC1(C)S[C@@H]2[C@H](NC(=O)[C@H](N)c3ccccc3)C(=O)N2[C@H]1C(=O)O` [ampicillin], the MIC [6] is listed as 3.9 to 250 mg/L.
